{
  "source": "patent US11739077B2",
  "about": "“Small molecule inhibitors of ubiquitin specific protease 1 (USP1) and uses thereof” (Insilico Medicine IP Limited, priority 2021, dated 2023)",
  "key": {"[1]": {"target": "Human recombinant USP1/UAF1 (Homo sapiens (Human), UniProt O94782)", "sequence (O94782 whole entry)": "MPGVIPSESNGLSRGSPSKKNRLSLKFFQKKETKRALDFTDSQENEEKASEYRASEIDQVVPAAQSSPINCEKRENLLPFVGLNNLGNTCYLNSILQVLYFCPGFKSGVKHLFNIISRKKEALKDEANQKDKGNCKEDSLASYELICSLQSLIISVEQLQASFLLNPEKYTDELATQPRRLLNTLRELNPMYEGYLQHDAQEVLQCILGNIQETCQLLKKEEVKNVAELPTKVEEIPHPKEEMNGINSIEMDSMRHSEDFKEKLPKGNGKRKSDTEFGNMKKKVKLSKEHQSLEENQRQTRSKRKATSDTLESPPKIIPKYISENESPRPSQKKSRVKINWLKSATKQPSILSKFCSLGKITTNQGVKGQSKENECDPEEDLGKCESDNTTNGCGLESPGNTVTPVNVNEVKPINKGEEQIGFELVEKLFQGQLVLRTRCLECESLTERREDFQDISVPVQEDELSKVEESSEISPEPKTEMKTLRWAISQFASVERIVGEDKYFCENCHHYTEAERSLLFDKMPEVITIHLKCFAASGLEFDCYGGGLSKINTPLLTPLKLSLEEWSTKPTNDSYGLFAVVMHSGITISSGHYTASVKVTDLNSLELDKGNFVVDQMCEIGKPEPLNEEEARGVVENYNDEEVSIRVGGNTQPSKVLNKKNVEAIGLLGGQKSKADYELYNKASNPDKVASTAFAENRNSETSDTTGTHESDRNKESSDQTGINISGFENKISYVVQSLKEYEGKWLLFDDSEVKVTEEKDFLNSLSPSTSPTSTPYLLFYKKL", "sequence (Q8TAF3 whole entry partner)": "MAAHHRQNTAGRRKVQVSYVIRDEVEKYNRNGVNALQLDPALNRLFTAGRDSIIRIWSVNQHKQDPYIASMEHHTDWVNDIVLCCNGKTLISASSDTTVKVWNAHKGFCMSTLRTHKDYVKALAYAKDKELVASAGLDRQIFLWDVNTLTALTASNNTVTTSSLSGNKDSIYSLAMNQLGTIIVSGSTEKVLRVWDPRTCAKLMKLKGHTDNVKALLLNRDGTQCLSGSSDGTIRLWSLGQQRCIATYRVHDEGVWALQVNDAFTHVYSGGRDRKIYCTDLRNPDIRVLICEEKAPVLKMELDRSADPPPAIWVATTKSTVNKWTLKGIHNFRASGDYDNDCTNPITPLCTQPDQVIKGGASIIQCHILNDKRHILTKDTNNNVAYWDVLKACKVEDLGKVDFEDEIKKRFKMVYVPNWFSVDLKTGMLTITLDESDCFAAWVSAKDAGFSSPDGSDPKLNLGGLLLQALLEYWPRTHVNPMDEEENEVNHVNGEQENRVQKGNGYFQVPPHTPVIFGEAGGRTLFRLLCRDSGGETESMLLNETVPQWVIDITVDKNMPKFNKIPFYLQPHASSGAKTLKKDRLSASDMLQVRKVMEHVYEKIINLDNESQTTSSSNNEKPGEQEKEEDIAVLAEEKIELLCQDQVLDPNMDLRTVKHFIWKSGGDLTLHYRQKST", "experiment": "Enzymatic assay, USP1/UAF1 with Ubiquitin Rhodamine 110", "type": "biochemical", "settings": "2 nM USP1/UAF1, 500 nM Ubiquitin Rhodamine 110, 15 minutes preincubation at RT", "description": "Human recombinant USP1/UAF1 expressed in baculovirus infected Sf21 cells were used (R&D, E-568-050). Test compound and/or vehicle was incubated with 2 nM of USP1/UAF1 in modified HEPES buffer pH 8.0 for 15 minutes at RT. The reaction was initiated by addition of 500 nM of Ubiquitin Rhodamine 110 (R&D, U-555-050) for kinetic reading. Slope change of fluorescence intensity was read spectrofluorimetrically at 485 nm/535 nm."}, "MDA-MB-436 cells": {"system": "MDA-MB-436 cells", "experiment": "MDA-MB-436 breast cancer cell proliferation assay (CellTiter-Glo)", "type": "cell-based", "settings": "7 days", "description": "MDA-MB-436 cells were grown in Leibovitz's L-15 medium with 10 ug/ml insulin, 16 ug/ml glutathione, 10% FBS. Cells were passaged at subconfluence after trypsinization and maintained in incubators at 37° C. in a humidified atmosphere with 5% CO2.\nCell proliferation was determined using CellTiter-Glo® Luminescent Cell Viability Assay (Promega, #G7573). MDA-MB-436 cells were seeded in 384-well plates and allowed to attach for 24 h. Compounds were added into 384-well plate by ECHO, and incubated at 37° C. in a humidified atmosphere with 5% CO2. After 7 days, CellTiter-Glo was added into 384 well plates, contents were mixed on an orbital shaker at […] for 2 min before centrifuging the plate for 2 min at 1000 rpm. After incubation at RT for 30 min, luminescence was read on envision."}},
  "data": [
    {"smiles": "COc1ncnc(C2CC2)c1-c1nn(C)c2c1CN(c1ccc(-n3nc(C(F)(F)F)cc3C)cn1)CC2", "note": "[Example 15, 3-(4-cyclopropyl-6-methoxypyrimidin-5-yl)-1-methyl-5-(5-(5-methyl-3-(trifluoromethyl)-1H-pyrazol-1-yl)pyridin-2-yl)-4,5,6,7-tetrahydro-1H-pyrazolo[4,3-c]pyridine]", "values": [
      {"measurement": "IC50", "setting": "[1]", "result": "< 50", "unit": "nM"},
      {"measurement": "IC50", "setting": "MDA-MB-436 cells", "result": "50 to 1000", "unit": "nM"}
    ]},
    {"smiles": "COc1ncnc(C2CC2)c1-c1nn(C)c2c1CN(c1ccc(-c3nc(C(F)(F)F)cn3C)nn1)CC2", "note": "[Example 29, 3-(4-cyclopropyl-6-methoxypyrimidin-5-yl)-1-methyl-5-(6-(1-methyl-4-(trifluoromethyl)-1H-imidazol-2-yl)pyridazin-3-yl)-4,5,6,7-tetrahydro-1H-pyrazolo[4,3-c]pyridine]", "values": [
      {"measurement": "IC50", "setting": "[1]", "result": "50 to 1000", "unit": "nM"},
      {"measurement": "IC50", "setting": "MDA-MB-436 cells; Homo sapiens, 168 h", "result": "50 to 1000", "unit": "nM"}
    ]},
    {"smiles": "COc1ncnc(C2CC2)c1-c1nn(C)c2c1CN(c1ccc(-c3nc(C(F)(F)F)cn3C)nc1)CC2", "note": "[Example 6, 3-(4-cyclopropyl-6-methoxypyrimidin-5-yl)-1-methyl-5-(6-(1-methyl-4-(trifluoromethyl)-1H-imidazol-2-yl)pyridin-3-yl)-4,5,6,7-tetrahydro-1H-pyrazolo[4,3-c]pyridine]", "values": [
      {"measurement": "IC50", "setting": "[1]", "result": "< 50", "unit": "nM"},
      {"measurement": "IC50", "setting": "MDA-MB-436 cells; Homo sapiens, 168 h", "result": "< 50", "unit": "nM"}
    ]},
    {"smiles": "COc1ncnc(C2CC2)c1-c1n[nH]c2c1CN(c1ccc(-c3nc(C(F)(F)F)cn3C(C)C)cn1)CC2", "note": "[Example 20, 3-(4-cyclopropyl-6-methoxypyrimidin-5-yl)-5-(5-(1-isopropyl-4-(trifluoromethyl)-1H-imidazol-2-yl)pyridin-2-yl)-4,5,6,7-tetrahydro-1H-pyrazolo[4,3-c]pyridine]", "values": [
      {"measurement": "IC50", "setting": "[1]", "result": "50 to 1000", "unit": "nM"},
      {"measurement": "IC50", "setting": "MDA-MB-436 cells; Homo sapiens, 168 h", "result": "50 to 1000", "unit": "nM"}
    ]}
  ]
}
